# Experiments:
# P2RX3-receptors = target: T1, P2RX3-receptors (Homo sapiens, UniProt P56373); assay: Calcium flux measurements (Fluo-3 AM) in iNBSC-derived sensory neurons; type: cell-based
# T1 construct: endogenous in cells; host or cells: sensory neurons differentiated from human iNBSCs (WT and SCN9a-/- cultures)
# T1 sequence (P56373 1-397): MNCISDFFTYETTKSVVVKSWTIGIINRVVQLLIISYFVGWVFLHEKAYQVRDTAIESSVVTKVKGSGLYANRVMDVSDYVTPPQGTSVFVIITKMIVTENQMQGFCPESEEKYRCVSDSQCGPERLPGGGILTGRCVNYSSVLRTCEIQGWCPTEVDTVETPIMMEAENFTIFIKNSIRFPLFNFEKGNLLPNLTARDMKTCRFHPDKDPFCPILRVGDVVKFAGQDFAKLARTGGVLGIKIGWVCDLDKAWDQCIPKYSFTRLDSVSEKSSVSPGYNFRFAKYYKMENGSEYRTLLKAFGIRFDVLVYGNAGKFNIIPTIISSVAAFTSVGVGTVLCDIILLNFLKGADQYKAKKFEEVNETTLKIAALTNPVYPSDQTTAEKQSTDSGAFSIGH
# Procedure: Cell cultures were incubated in a solution containing the cell-permeable fluorescent Ca2+ indicator Fluo-3 AM (2 μM; F1242, Thermo Scientific™) and Cell Tracker Red CMTPX (1 μM; C34552, Thermo Scientific™) to delineate cell membranes. Dye loading was carried out in an incubator at 37° C., 5% CO2 for 30 min.
# Imaging of fluorescently labeled cells was performed on a TCS SP5 microscope (Leica) equipped with a 20×(1 numerical aperture) water-immersion objective. Images (512×512 pixels) were acquired at 1000 Hz speed every 0.8-1.6 seconds with 0.5 μm per pixel resolution in the xy dimension, and 3-4 μm steps in the z dimension. Argon and HeNe-543 lasers were used to excite Fluo-3 AM and Cell Tracker Red CMTPX dyes, respectively. […] After recording baseline fluorescence for 2 minutes, α,β-methylene ATP was applied (30 μM in ACSF; COMPANY) for 2 minutes. […]
# We obtained relative fluorescence changes (Fi/F0), where F0 is the fluorescence image formed by averaging the first 50 frames of the sequence, and F(i) represents each (i) frame of the recording. […]
# We then studied global calcium activity by averaging fluorescence intensity in the whole image before and in response to stimulation with α,β-methylene ATP in WT−(n=3) and SCN9−/− (n=4) neuronal cultures.
# pNBSCs = assay: Culture of pNBSCs on Matrigel in absence of feeders with Notch-ligands; type: cell-based, mouse; conditions: cultured on MG with DII4 and Jagged1 together, 500 ng/ml each
# Procedure: a, Preparation of E8.5 stage embryos for isolation of pNBSCs. Representative microscopy pictures of an E8.5 stage embryo prior to dissection of neural tissue. […] Results are shown for two independent pNBSC clones and E13.5 stage derived RG-like SCs (n=3; t-test, **P<0.01, Mean with SEM). g, Culture of pNBSCs on inactivated MEFs (feeder) or Matrigel in presence or absence of Notch-ligands 500 ng/ml DII4 and 500 ng/ml Jagged-1. h, Regional identity of pNBSCs. mRNA expression of region specific markers was determined in three independent pNBSCs lines. Expression was normalized to whole E13.5 stage fetal brains. i, Flow cytometry data of a pNBSC line under maintenance and neural crest priming condition. pNBSCs were either cultured in CAP or CA+BMP4 for 5 days before levels of Ssea1 and P75 were determined by flow cytometry. j, Immunofluorescence stainings for serotonin on neuronal differentiation. pNBSCs were differentiated in presence of Purmorphamine for 3 days and matured for additional 2 weeks before stainings were performed; scale bar 50 μm. k, BF pictures of pNBSCs embedded as single cell suspension in MG after CNS- and NC-priming. pNBSCs were cultured in CSP for 6 days (upper panel) or CABF for 10 days (lower panel). […]
Compound,rapid differentiation of pNBSCs in the absence of feeders (pNBSCs),further results
O=C(O)c1cc(C(=O)O)c(C(=O)N(Cc2cccc(Oc3ccccc3)c2)[C@H]2CCCc3ccccc32)cc1C(=O)O [A-317491],,"α,β-Methylene-ATP-induced calcium flux (neuronal activity) in the presence of antagonist (P2RX3-receptors; 1 μM A-317491, stimulation with 30 μM α,β-methylene ATP, WT sensory neurons, compared to controls, t-test P<0.05): significantly reduced"
"Nc1ncnc2c1ncn2[C@@H]1O[C@H](COP(=O)(O)CP(=O)(O)OP(=O)(O)O)[C@@H](O)[C@H]1O [α,β-Methylene-ATP]",,"neuronal activity by calcium flux measurements upon stimulation (P2RX3-receptors; 30 μM α,β-methylene ATP, WT iNBSC-derived sensory neurons, Fluo-3 AM fluorescence relative to baseline): robust increase of activity"
DII4: Notch-ligand,partially halted,
Jagged1: Notch-ligand,partially halted,
